Patent US20230265151A1, “GIP/GLP1 CO-AGONIST COMPOUNDS” (priority 2020, published 2023)
Read-outs that look alike come from different tables or passages of the source.

What was measured:
Format in all cases: cell-based
hGCGR = molecular target: T1, hGCGR (Homo sapiens, UniProt P47871); test: Functional cAMP formation (HTRF) in HEK-293 clonal cells expressing hGCGR, 0.1% bovine casein, without or with 1.0% human serum albumin; details: geometric mean
T1 construct: expressed in transfected cells
Method in brief: (§1)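 Cells were stimulated with peptide for 30 min at 37° C, then lysed in buffer carrying cAMP-d2 and anti-cAMP Eu3+-cryptate for a competitive HTRF read after at least 60 min at room temperature. The 665/620 nm ratio was converted to nM cAMP against a standard curve.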

hGLP-1R = hGLP-1R (Homo sapiens, UniProt P43220); test: Functional cAMP formation (HTRF) in HEK-293 clonal cells expressing hGLP-1R, 0.1% bovine casein, without or with 1.0% human serum albumin; parameters: expressed in transfected cells; details: for Emax: read-out: hGLP-1R Emax, % ± SEM; for EC50: geometric mean
Chain of hGLP-1R (P43220 24-463): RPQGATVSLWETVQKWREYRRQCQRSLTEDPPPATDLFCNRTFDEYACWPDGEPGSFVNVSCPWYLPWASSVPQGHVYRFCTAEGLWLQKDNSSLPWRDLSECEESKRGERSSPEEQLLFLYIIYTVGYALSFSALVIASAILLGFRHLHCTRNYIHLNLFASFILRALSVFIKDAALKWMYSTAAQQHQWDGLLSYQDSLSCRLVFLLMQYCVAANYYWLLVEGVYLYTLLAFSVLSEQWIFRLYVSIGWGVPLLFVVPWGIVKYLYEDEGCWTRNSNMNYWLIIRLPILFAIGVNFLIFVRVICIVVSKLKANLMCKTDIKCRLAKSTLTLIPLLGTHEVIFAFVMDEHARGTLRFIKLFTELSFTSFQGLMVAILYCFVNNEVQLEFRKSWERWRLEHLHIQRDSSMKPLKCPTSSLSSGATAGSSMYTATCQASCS
Method in brief: as §1

hGIPR = molecular target: T2, hGIPR (Homo sapiens, UniProt P48546); test: Functional cAMP formation (HTRF) in HEK-293 clonal cells expressing hGIPR, 0.1% bovine casein, without or with 1.0% human serum albumin; details: for EC50: geometric mean
T2 construct: expressed in transfected cells
T2 sequence (P48546 22-466): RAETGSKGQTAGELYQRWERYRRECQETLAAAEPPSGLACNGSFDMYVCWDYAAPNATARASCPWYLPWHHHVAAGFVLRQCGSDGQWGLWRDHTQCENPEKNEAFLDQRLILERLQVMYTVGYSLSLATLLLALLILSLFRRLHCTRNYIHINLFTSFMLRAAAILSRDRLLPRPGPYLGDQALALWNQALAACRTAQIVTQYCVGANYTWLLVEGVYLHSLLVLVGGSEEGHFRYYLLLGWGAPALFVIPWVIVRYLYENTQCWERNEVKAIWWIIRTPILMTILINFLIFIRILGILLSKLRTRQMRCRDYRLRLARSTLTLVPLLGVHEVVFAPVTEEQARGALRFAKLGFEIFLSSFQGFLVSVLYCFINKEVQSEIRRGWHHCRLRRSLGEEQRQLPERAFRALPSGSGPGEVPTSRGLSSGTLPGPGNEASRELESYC
Method in brief: as §1

[1] = 0.1% bovine casein and 1.0% human serum albumin, 37° C., read-out: hGCGR EC50, nM (SEM, n)
[2] = cAMP, incubated at 37° C., 0.1% bovine casein (no human serum albumin), read-out: hGCGR EC50, nM (SEM, n)
[3] = HEK293, 0.1% bovine casein and 1.0% human serum albumin, 37° C., percent of maximal response to GLP-1(7-36)NH2
[4] = HEK293, percent of maximal response to GLP-1(7-36)NH2, 37° C., 0.1% bovine casein, arithmetic mean
[5] = 0.1% bovine casein and 1.0% human serum albumin, 37° C., read-out: hGIPR EC50, nM (SEM, n)
[6] = cAMP, incubated at 37° C., 0.1% bovine casein (no human serum albumin), read-out: hGIPR EC50, nM (SEM, n)
[7] = 0.1% bovine casein and 1.0% human serum albumin, 37° C., read-out: hGLP-1R EC50, nM (SEM, n)
[8] = HEK293, 0.1% bovine casein and 1.0% human serum albumin, 37° C., percent of maximal response to GIP(1-42)NH2, read-out: hGIPR Emax, % ± SEM
[9] = HEK293, percent of maximal response to GIP(1-42)NH2, 37° C., 0.1% bovine casein, arithmetic mean, read-out: hGIPR Emax, % ± SEM

T1 sequence (P47871 26-477): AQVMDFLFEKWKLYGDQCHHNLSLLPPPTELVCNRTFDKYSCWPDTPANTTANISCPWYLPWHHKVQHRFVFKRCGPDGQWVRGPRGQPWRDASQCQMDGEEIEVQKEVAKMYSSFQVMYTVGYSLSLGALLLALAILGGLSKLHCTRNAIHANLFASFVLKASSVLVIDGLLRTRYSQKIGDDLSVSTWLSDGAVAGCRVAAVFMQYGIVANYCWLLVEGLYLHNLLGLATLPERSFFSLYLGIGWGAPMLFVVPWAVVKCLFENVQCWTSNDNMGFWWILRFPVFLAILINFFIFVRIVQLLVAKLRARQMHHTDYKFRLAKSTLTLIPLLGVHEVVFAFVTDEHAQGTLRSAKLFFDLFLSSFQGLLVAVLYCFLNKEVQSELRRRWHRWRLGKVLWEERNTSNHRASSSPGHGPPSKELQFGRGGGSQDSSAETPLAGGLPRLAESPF

Compound | EC50 (hGCGR; [1]) [nM] | EC50 (hGCGR; [2]) [nM] | Emax (hGLP-1R; [3]) [%] | Emax (hGLP-1R; [4]) [%] | EC50 (hGIPR; [5]) [nM] | EC50 (hGIPR; [6]) [nM] | EC50 (hGLP-1R; [7]) [nM] | Emax (hGIPR; [8]) [%] | Emax (hGIPR; [9]) [%] | EC50 (hGLP-1R; cAMP, incubated at 37° C., 0.1% bovine casein (no human serum albumin), read-out: hGLP-1R EC50, nM (SEM, n)) [nM] | EC50 (hGCGR; hGCGR EC50, nM (SEM, n), 0.1% bovine casein and 1.0% human serum albumin, 37° C.) [nM] | EC50 (hGCGR; hGCGR EC50, nM (SEM, n), cAMP, incubated at 37° C., 0.1% bovine casein (no human serum albumin)) [nM] | EC50 (hGLP-1R; hGLP-1R EC50, nM (SEM, n), 0.1% bovine casein and 1.0% human serum albumin, 37° C.) [nM] | Emax (hGIPR; HEK293, read-out: hGIPR Emax, % ± SEM, 0.1% bovine casein and 1.0% human serum albumin, 37° C., percent of maximal response to GIP(1-42)NH2) [%] | Emax (hGIPR; HEK293, read-out: hGIPR Emax, % ± SEM, percent of maximal response to GIP(1-42)NH2, 37° C., 0.1% bovine casein, arithmetic mean) [%] | EC50 (hGIPR; hGIPR EC50, nM (SEM, n), 0.1% bovine casein and 1.0% human serum albumin, 37° C.) [nM] | EC50 (hGIPR; hGIPR EC50, nM (SEM, n), cAMP, incubated at 37° C., 0.1% bovine casein (no human serum albumin)) [nM]
CC[C@H](C)[C@H](NC(=O)[C@H](CC(C)C)NC(=O)[C@](C)(Cc1ccc(O)cc1)NC(=O)[C@@H](CCC(=O)O)NC(=O)[C@@H](NC(=O)[C@H](Cc1ccccc1F)NC(=O)[C@H](CCC(=O)O)NC(=O)C(C)(C)NC(=O)[C@H](CCC(N)=O)NC(=O)[C@H](C)NC(=O)[C@H](CCCCNC(=O)COCCOCCNC(=O)COCCOCCNC(=O)CC[C@H](NC(=O)CCCCCCCCCCCCC(=O)O)C(=O)O)NC(=O)[C@H](CCCN)NC(=O)[C@H](CC(=O)O)NC(=O)[C@H](CC(C)C)NC(=O)[C@](C)(CC(C)C)NC(=O)[C@@H](NC(=O)[C@H](CO)NC(=O)[C@H](Cc1ccncc1)NC(=O)[C@H](CC(=O)O)NC(=O)[C@H](CO)NC(=O)[C@@H](NC(=O)[C@](C)(Cc1ccccc1F)NC(=O)[C@@H](NC(=O)CNC(=O)[C@H](CCC(=O)O)NC(=O)C(C)(C)NC(=O)[C@@H](N)Cc1ccc(O)cc1)[C@@H](C)O)[C@@H](C)O)[C@@H](C)CC)[C@@H](C)CC)C(=O)N[C@@H](CCC(=O)O)C(=O)NCC(=O)NCC(=O)N[C@@H](CCCCNC(=O)COCCOCCNC(=O)COCCOCCNC(=O)CC[C@H](NC(=O)CCCCCCCCCCCCC(=O)O)C(=O)O)C(=O)N[C@@H](CO)C(=O)N[C@@H](CO)C(=O)NCC(=O)N[C@@H](C)C(=O)N1CCC[C@H]1C(=O)N1CCC[C@H]1C(=O)N1CCC[C@H]1C(=O)N[C@@H](CO)C(N)=O [Example 63] | > 9950 | > 9950 | 98 | 90.6 | 0.771 | 0.0176 | – | – | – | – | – | – | – | – | – | – | –
CC[C@H](C)[C@H](NC(=O)[C@H](CC(C)C)NC(=O)[C@](C)(Cc1ccc(O)cc1)NC(=O)[C@@H](CCC(=O)O)NC(=O)[C@@H](NC(=O)[C@H](Cc1cccc2ccccc12)NC(=O)[C@H](CCC(=O)O)NC(=O)C(C)(C)NC(=O)[C@H](CCC(N)=O)NC(=O)[C@H](C)NC(=O)[C@H](CCCCNC(=O)COCCOCCNC(=O)COCCOCCNC(=O)CC[C@H](NC(=O)CCCCCCCCCCCCC(=O)O)C(=O)O)NC(=O)[C@H](CCCN)NC(=O)[C@H](CC(=O)O)NC(=O)[C@H](CC(C)C)NC(=O)[C@](C)(CC(C)C)NC(=O)[C@@H](NC(=O)[C@H](CO)NC(=O)[C@H](Cc1ccncc1)NC(=O)[C@H](CC(=O)O)NC(=O)[C@H](CO)NC(=O)[C@@H](NC(=O)[C@](C)(Cc1ccccc1F)NC(=O)[C@@H](NC(=O)CNC(=O)[C@H](CCC(=O)O)NC(=O)C(C)(C)NC(=O)[C@@H](N)Cc1ccc(O)cc1)[C@@H](C)O)[C@@H](C)O)[C@@H](C)CC)[C@@H](C)CC)C(=O)N[C@@H](CCC(=O)O)C(=O)NCC(=O)NCC(=O)N[C@@H](CCCCNC(=O)COCCOCCNC(=O)COCCOCCNC(=O)CC[C@H](NC(=O)CCCCCCCCCCCCC(=O)O)C(=O)O)C(=O)N[C@@H](CO)C(=O)N[C@@H](CO)C(=O)NCC(=O)N[C@@H](C)C(=O)N1CCC[C@H]1C(=O)N1CCC[C@H]1C(=O)N1CCC[C@H]1C(=O)N[C@@H](CO)C(N)=O [Example 66] | > 9950 | > 9950 | 93 ± 2.36 | – | – | 0.0168 | 27 | 90.6 ± 3.37 | 93.5 ± 1.39 | – | – | – | – | – | – | – | –
CC[C@H](C)[C@H](NC(=O)[C@H](CC(C)C)NC(=O)[C@H](CCCCNC(=O)COCCOCCNC(=O)COCCOCCNC(=O)CC[C@H](NC(=O)CCCc1ccc(C(C)(C)C)cc1)C(=O)O)NC(=O)[C@@H](CCC(=O)O)NC(=O)[C@@H](NC(=O)[C@H](Cc1ccccc1)NC(=O)[C@H](CCC(=O)O)NC(=O)C(C)(C)NC(=O)[C@H](CCC(N)=O)NC(=O)[C@H](C)NC(=O)[C@H](CCCCNC(=O)COCCOCCNC(=O)COCCOCCNC(=O)CC[C@H](NC(=O)CCCc1ccc(C(C)(C)C)cc1)C(=O)O)NC(=O)[C@H](CCCN)NC(=O)[C@H](CC(=O)O)NC(=O)[C@H](CC(C)C)NC(=O)[C@](C)(CC(C)C)NC(=O)[C@@H](NC(=O)[C@H](CO)NC(=O)[C@H](Cc1ccncc1)NC(=O)[C@H](CC(=O)O)NC(=O)[C@H](CO)NC(=O)[C@@H](NC(=O)[C@](C)(Cc1ccccc1F)NC(=O)[C@@H](NC(=O)CNC(=O)[C@H](CCC(=O)O)NC(=O)C(C)(C)NC(=O)[C@@H](N)Cc1ccc(O)cc1)[C@@H](C)O)[C@@H](C)O)[C@@H](C)CC)[C@@H](C)CC)C(=O)N[C@@H](CCC(=O)O)C(=O)NCC(=O)NCC(=O)N1CCC[C@H]1C(=O)N[C@@H](CO)C(=O)N[C@@H](CO)C(=O)NCC(=O)N[C@@H](C)C(=O)N1CCC[C@H]1C(=O)N1CCC[C@H]1C(=O)N1CCC[C@H]1C(=O)N[C@@H](CO)C(N)=O [Example 67] | > 9950 | > 9950 | – | 91.7 | 0.0417 | – | 12 | 91.9 | 95 | 2.63 | – | – | – | – | – | – | –
CC[C@H](C)[C@H](NC(=O)[C@H](CC(C)C)NC(=O)[C@H](CCCCNC(=O)COCCOCCNC(=O)COCCOCCNC(=O)CC[C@H](NC(=O)CCCc1ccc(C(C)(C)C)cc1)C(=O)O)NC(=O)[C@H](CCC(=O)O)NC(=O)[C@@H](NC(=O)[C@H](Cc1ccccc1)NC(=O)[C@H](CCC(=O)O)NC(=O)C(C)(C)NC(=O)[C@H](CCC(N)=O)NC(=O)[C@H](C)NC(=O)[C@H](CCCCNC(=O)COCCOCCNC(=O)COCCOCCNC(=O)CC[C@H](NC(=O)CCCc1ccc(C(C)(C)C)cc1)C(=O)O)NC(=O)[C@H](CCCN)NC(=O)[C@H](CC(=O)O)NC(=O)[C@H](CC(C)C)NC(=O)[C@](C)(CC(C)C)NC(=O)[C@@H](NC(=O)[C@H](CO)NC(=O)[C@H](Cc1ccncc1)NC(=O)[C@H](CC(=O)O)NC(=O)[C@H](CO)NC(=O)[C@@H](NC(=O)[C@](C)(Cc1ccccc1F)NC(=O)[C@@H](NC(=O)CNC(=O)[C@H](CCC(=O)O)NC(=O)C(C)(C)NC(=O)[C@@H](N)Cc1ccc(O)cc1)[C@@H](C)O)[C@@H](C)O)[C@@H](C)CC)[C@@H](C)CC)C(=O)N[C@@H](CCC(=O)O)C(=O)NCC(=O)NCC(=O)N1CCC[C@H]1C(=O)N[C@@H](CO)C(=O)N[C@@H](CO)C(=O)NCC(=O)N[C@@H](C)C(=O)N1CCC[C@H]1C(=O)N1CCC[C@H]1C(=O)N1CCC[C@H]1C(=O)N[C@@H](CO)C(N)=O [Example 68] | > 9950 | > 9950 | – | 95.9 | 0.0831 | 0.0105 | 5.79 | 92.4 | – | – | – | – | – | – | – | – | –
CC[C@H](C)[C@H](NC(=O)[C@H](CCCN)NC(=O)[C@H](CC(=O)O)NC(=O)[C@H](CC(C)C)NC(=O)[C@](C)(CC(C)C)NC(=O)[C@@H](NC(=O)[C@H](CO)NC(=O)[C@H](Cc1ccncc1)NC(=O)[C@H](CC(=O)O)NC(=O)[C@H](CO)NC(=O)[C@@H](NC(=O)[C@](C)(Cc1ccccc1F)NC(=O)[C@@H](NC(=O)CNC(=O)[C@H](CCC(=O)O)NC(=O)C(C)(C)NC(=O)[C@@H](N)Cc1ccc(O)cc1)[C@@H](C)O)[C@@H](C)O)[C@@H](C)CC)C(=O)N[C@@H](C)C(=O)N[C@@H](CCC(N)=O)C(=O)NC(C)(C)C(=O)N[C@@H](CCCCNC(=O)COCCOCCNC(=O)COCCOCCNC(=O)CC[C@H](NC(=O)CCCCCCCCCCCCC(=O)O)C(=O)O)C(=O)N[C@@H](Cc1ccccc1)C(=O)N[C@H](C(=O)N[C@@H](CCCCNC(=O)COCCOCCNC(=O)COCCOCCNC(=O)CC[C@H](NC(=O)CCCCCCCCCCCCC(=O)O)C(=O)O)C(=O)N[C@@](C)(Cc1ccc(O)cc1)C(=O)N[C@@H](CC(C)C)C(=O)N[C@H](C(=O)N[C@@H](CCC(=O)O)C(=O)NCC(=O)NCC(=O)N1CCC[C@H]1C(=O)N[C@@H](CO)C(=O)N[C@@H](CO)C(=O)NCC(=O)N[C@@H](C)C(=O)N1CCC[C@H]1C(=O)N1CCC[C@H]1C(=O)N1CCC[C@H]1C(=O)N[C@@H](CO)C(N)=O)[C@@H](C)CC)[C@@H](C)CC [Example 69] | – | – | – | – | – | – | – | – | – | – | > 9950 | > 9950 | 18.9 | 86.8 | 99 ± 2.43 | 2.32 | 0.0265
